Source: US8653304B2, “2,3-dihydro-1H-indene-2-yl urea derivative and pharmaceutical application of same” (Toray Industries, Inc., priority 2009, dated 2014)

Assays:
[1] = tested on: colonic disorders in DSS-induced chronic colitis model; experiment: Colonic disorders in DSS-induced chronic colitis model; assay type: in vivo; settings: BALB/c mouse, oral 10 mg/kg once Day 27, twice a day Day 28-31; scores Day 28-32
From the text: (§1) The action of Compound (I) on colonic disorders in inflammatory bowel disease models was studied. As the inflammatory bowel disease models, models partially modified from a TNBS-induced colitis model and a DSS-induced chronic colitis model described in documents (Gastroenterology, 1989, Vol. 96, pp. 29-36 and Am. J. Physiol. Gastrointest. Liver Physiol., 2004, Vol. 287, pp. G115-124) were used.
To each BALB/cCrSlc mouse (female, 9-week old, Japan SLC, Inc.), DSS (Molecular Weight: 36-50 kDa; MP Biomedicals) dissolved in sterile ultrapure water was administered via free drinking for 5 days from the day of the start of the administration via drinking water (this day was considered as Day 0 after the start of the administration via drinking water), and then switched to administration of sterile ultrapure water via free drinking for 5 days. This cycle was repeated again, and DSS was further administered via free drinking for another 7 days to produce the colitis model. As an index of colitis symptoms, stool consistency scores were used. The stool consistency scores were based on the following criteria: normal stool was defined as score 0; loose stool was defined as score 2; and diarrhea was defined as score 4. […]

[2] = Metabolic stability in human CYP (human liver microsomes); assay type: in vitro ADME; settings: human liver microsomes 0.5 mg/mL, NADPH, 37° C., compound 2 μM
Procedure: Each test compound was mixed at a concentration of 2 μM with a phosphate buffer solution containing Human liver microsomes (Xenotech) in an amount of 0.5 mg/mL. Thereafter, NADPH was added thereto, and the obtained mixture was allowed to react at 37° C. for up to 30 minutes. The reaction was terminated by adding acetonitrile, and then the resultant was centrifuged for 10 minutes at 4° C. to collect a supernatant. The supernatant was pretreated by methanol extraction method, and the concentration of the compound was analyzed by LC/MS/MS (ESI positive mode). The compound remaining rate was calculated from the obtained concentration of the compound.

[3] = tested on: hyperalgesia in Chung model; experiment: Hyperalgesia in neuropathic pain model (Chung model), von Frey test; assay type: in vivo; settings: SD rat, Chung model day 7, oral 100 mg/kg, 90 minutes after administration
From the text: The action of Compound (I) on hyperalgesia in pain models was studied. As the pain models, models partially modified from an inflammatory pain model (a carrageenin paw edema pain model) and neuropathic pain models (Bennett model and Chung model) described in documents (Anesth. Analg., 2009, Vol. 108, pp. 1680-1687; Pain, 1988, Vol. 33, pp. 87-107; and Pain, 1992, Vol. 50, pp. 355-363) were used.
The Chung model was produced by completely ligating the L5 and L6 spinal nerves of each Crl:CD (SD) rat (male, 6-week old, Charles River Laboratories Japan, Inc.) with a silk suture (5-0). Seven days after the Chung model was produced, each test compound was orally administered, and von Frey test was performed 90 minutes after the administration. In addition, fifteen days after the Chung model was produced, each test compound was orally administered, and plantar test was performed 90 minutes after the administration. The von Frey test was carried out by measuring the pain threshold (g) of the left footpad (model foot) using Dynamic Plantar Aesthesiometer (37400, Ugo Basile) wherein the maximum pressure was set to 30.0 g and the time required to reach the maximum pressure was set to 40 seconds. The plantar test was carried out by the method described above. […]

[4] = tested on: colonic disorders in TNBS-induced colitis model; experiment: Colonic disorders in TNBS-induced colitis model; assay type: in vivo; settings: Wistar rat, oral 3 mg/kg once on TNBS day then twice a day for 4 days, colon 5 days after TNBS
From the text: as §1
To each Slc:Wistar rat (male, 12-week old, Japan SLC, Inc.), TNBS (Wako Pure Chemical Industries, Ltd.) dissolved in ethanol was rectally administered under anesthesia, and the TNBS solution was held in the rectum for 1 hour to produce the colitis model. These rats had been fasted from 2 days before the TNBS administration to the day of the TNBS administration. Five days after the TNBS administration, the colon was isolated from the each rat, and the macroscopic damage score (which is a total of adhesion score, diarrhea score and ulcer score) was recorded as an index of damage in the colon. The macroscopic damage score was calculated based on the scores of Dubigeon et al. (Eur. J. Pharmacol., 2001, Vol. 431, pp. 103-110) and the scores of Venkova et al. (J. Pharmacol. Exp. Ther., 2004, Vol. 308, pp. 206-213). […]

TNFα production = experiment: Cytokine production suppressing activity using human whole blood (LPS stimulation); assay type: cell-based; settings: LPS 200 ng/mL, 37° C., 5 hours
Procedure: Using human whole blood, the inhibitory action of Compound (I) on the TNFα production by LPS stimulation was studied by a method partially modified from the method described in Journal of Medicinal Chemistry (2003, Vol. 46, pp. 4676-4686).
A solution of each test compound in 100% DMSO and human blood were mixed in a 96-well flat-bottom plate. Thereafter, LPS (Final Concentration: 200 ng/mL) was added, and the resulting mixture was allowed to react at 37° C. for 5 hours (the final concentration of DMSO was 0.2%). After the reaction, the resultant was centrifuged for 20 minutes at room temperature, and the supernatant was collected. For the measurement of the TNFα amount in the supernatant, a human cytokine kit (CIS bio international) was used. As a comparative control compound, Comparative Compound 2 was used.

microsomal CLint at 2 μM [2]: 94 µL/min/mg
IC50 (TNFα production): 508 nM
Compound: COc1c(NC(=O)N[C@@H]2Cc3ccccc3[C@@H]2O)cc(C(C)(C)C)cc1[C@@H](O)C(F)(F)F [Compound 46b, 1-(5-tert-butyl-2-methoxy-3-((R)-2,2,2-trifluoro-1-hydroxyethyl)phenyl)-3-((1S,2R)-1-hydroxy-2,3-dihydro-1H-indene-2-yl)urea]
stool consistency score (total) [1]: 5.7±0.8
pain threshold, von Frey test [3]: 7.0 ± 0.3 g
macroscopic damage score [4]: 3.3±0.7
